{
  "source": "the supplement of paper PMC10307832",
  "assay_in_all_cases": "relative viability (nuclei count vs DMSO), 5 days (fraction); higher = more cells survive",
  "key": {"HCC-78": {"system": "HCC-78", "in_short": "(§1)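 Relative viability divides the nuclei count in treated wells by that in vehicle wells. Lung cancer cell lines were seeded in 1536-well plates, dosed by pin tool the next day, and fixed and stained after 5 days in one step with final 0.05% Triton X-100, 1% formaldehyde and 1 ug/ml Hoechst. Dosing was a single drug or a fixed anchor-drug dose plus five library-drug doses (not always all listed) in √10 steps, and values are medians of duplicate plates imaged at 4×.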"}, "NCI-H2405": {"system": "NCI-H2405", "in_short": "as §1"}, "LC-2-ad": {"system": "LC-2-ad", "in_short": "as §1"}, "ABC-1": {"system": "ABC-1", "in_short": "as §1"}, "COR-L23": {"system": "COR-L23", "in_short": "as §1"}, "HOP-62": {"system": "HOP-62", "in_short": "as §1"}, "NCI-H2228": {"system": "NCI-H2228", "in_short": "as §1"}, "ChaGo-K-1": {"system": "ChaGo-K-1", "in_short": "as §1"}, "NCI-H1993": {"system": "NCI-H1993", "in_short": "as §1"}, "NCI-H838": {"system": "NCI-H838", "in_short": "as §1"}, "HCC-366": {"system": "HCC-366", "in_short": "as §1"}, "HARA": {"system": "HARA", "in_short": "as §1"}, "NCI-H2023": {"system": "NCI-H2023", "in_short": "as §1"}, "SK-LU-1": {"system": "SK-LU-1", "in_short": "as §1"}, "EMC-BAC-2": {"system": "EMC-BAC-2", "in_short": "as §1"}, "NCI-H23": {"system": "NCI-H23", "in_short": "as §1"}, "HCC-15": {"system": "HCC-15", "in_short": "as §1"}, "NCI-H2126": {"system": "NCI-H2126", "in_short": "as §1"}},
  "data": [
    {"smiles": "CCN(CC)CCCCNc1ncc2cc(-c3cc(OC)cc(OC)c3)c(NC(=O)NC(C)(C)C)nc2n1", "note": "+ CC(C)C[C@H](NC(=O)[C@H](Cc1ccccc1)NC(=O)c1cnccn1)B(O)O [Bortezomib] (partner 0.002 µM)", "values": [
      {"measurement": "relative viability", "setting": "HCC-78; first compound 0.01 µM", "result": 0.66},
      {"measurement": "relative viability", "setting": "HCC-78; first compound 0.03162 µM", "result": 0.487},
      {"measurement": "relative viability", "setting": "HCC-78; first compound 0.1 µM", "result": 0.395},
      {"measurement": "relative viability", "setting": "HCC-78; first compound 0.3162 µM", "result": 0.492},
      {"measurement": "relative viability", "setting": "HCC-78; first compound 1 µM", "result": 0.464},
      {"measurement": "relative viability", "setting": "NCI-H2405; first compound 0.01 µM", "result": 0.973},
      {"measurement": "relative viability", "setting": "NCI-H2405; first compound 0.03162 µM", "result": 0.866},
      {"measurement": "relative viability", "setting": "NCI-H2405; first compound 0.1 µM", "result": 1.05},
      {"measurement": "relative viability", "setting": "NCI-H2405; first compound 0.3162 µM", "result": 1.04},
      {"measurement": "relative viability", "setting": "NCI-H2405; first compound 1 µM", "result": 0.982},
      {"measurement": "relative viability", "setting": "LC-2-ad; first compound 0.01 µM", "result": 0.998},
      {"measurement": "relative viability", "setting": "LC-2-ad; first compound 0.03162 µM", "result": 1.06},
      {"measurement": "relative viability", "setting": "LC-2-ad; first compound 0.1 µM", "result": 1.33},
      {"measurement": "relative viability", "setting": "LC-2-ad; first compound 0.3162 µM", "result": 1.05},
      {"measurement": "relative viability", "setting": "LC-2-ad; first compound 1 µM", "result": 1},
      {"measurement": "relative viability", "setting": "ABC-1; first compound 0.01 µM", "result": 0.325},
      {"measurement": "relative viability", "setting": "ABC-1; first compound 0.03162 µM", "result": 0.343},
      {"measurement": "relative viability", "setting": "ABC-1; first compound 0.1 µM", "result": 0.342},
      {"measurement": "relative viability", "setting": "ABC-1; first compound 0.3162 µM", "result": 0.247},
      {"measurement": "relative viability", "setting": "ABC-1; first compound 1 µM", "result": 0.327},
      {"measurement": "relative viability", "setting": "COR-L23; first compound 0.01 µM", "result": 1.19},
      {"measurement": "relative viability", "setting": "COR-L23; first compound 0.03162 µM", "result": 1.3},
      {"measurement": "relative viability", "setting": "COR-L23; first compound 0.1 µM", "result": 1.13},
      {"measurement": "relative viability", "setting": "COR-L23; first compound 0.3162 µM", "result": 1.13},
      {"measurement": "relative viability", "setting": "COR-L23; first compound 1 µM", "result": 1.01},
      {"measurement": "relative viability", "setting": "HOP-62; first compound 0.01 µM", "result": 0.726},
      {"measurement": "relative viability", "setting": "HOP-62; first compound 0.03162 µM", "result": 0.888},
      {"measurement": "relative viability", "setting": "HOP-62; first compound 0.1 µM", "result": 0.728},
      {"measurement": "relative viability", "setting": "HOP-62; first compound 0.3162 µM", "result": 0.717},
      {"measurement": "relative viability", "setting": "HOP-62; first compound 1 µM", "result": 0.79},
      {"measurement": "relative viability", "setting": "NCI-H2228; first compound 0.01 µM", "result": 0.874},
      {"measurement": "relative viability", "setting": "NCI-H2228; first compound 0.03162 µM", "result": 0.997},
      {"measurement": "relative viability", "setting": "NCI-H2228; first compound 0.1 µM", "result": 1.24},
      {"measurement": "relative viability", "setting": "NCI-H2228; first compound 0.3162 µM", "result": 1.11},
      {"measurement": "relative viability", "setting": "NCI-H2228; first compound 1 µM", "result": 1.02},
      {"measurement": "relative viability", "setting": "ChaGo-K-1; first compound 0.01 µM", "result": 1.08},
      {"measurement": "relative viability", "setting": "ChaGo-K-1; first compound 0.03162 µM", "result": 1.14},
      {"measurement": "relative viability", "setting": "ChaGo-K-1; first compound 0.1 µM", "result": 1.28},
      {"measurement": "relative viability", "setting": "ChaGo-K-1; first compound 0.3162 µM", "result": 1.27},
      {"measurement": "relative viability", "setting": "ChaGo-K-1; first compound 1 µM", "result": 0.742},
      {"measurement": "relative viability", "setting": "NCI-H1993; first compound 0.01 µM", "result": 1},
      {"measurement": "relative viability", "setting": "NCI-H1993; first compound 0.03162 µM", "result": 0.981},
      {"measurement": "relative viability", "setting": "NCI-H1993; first compound 0.1 µM", "result": 1.26},
      {"measurement": "relative viability", "setting": "NCI-H1993; first compound 0.3162 µM", "result": 1.41},
      {"measurement": "relative viability", "setting": "NCI-H1993; first compound 1 µM", "result": 1.11},
      {"measurement": "relative viability", "setting": "NCI-H838; first compound 0.01 µM", "result": 0.793},
      {"measurement": "relative viability", "setting": "NCI-H838; first compound 0.03162 µM", "result": 0.732},
      {"measurement": "relative viability", "setting": "NCI-H838; first compound 0.1 µM", "result": 0.96},
      {"measurement": "relative viability", "setting": "NCI-H838; first compound 0.3162 µM", "result": 0.9},
      {"measurement": "relative viability", "setting": "NCI-H838; first compound 1 µM", "result": 0.579},
      {"measurement": "relative viability", "setting": "HCC-366; first compound 0.01 µM", "result": 1.09},
      {"measurement": "relative viability", "setting": "HCC-366; first compound 0.03162 µM", "result": 1.06},
      {"measurement": "relative viability", "setting": "HCC-366; first compound 0.1 µM", "result": 1.48},
      {"measurement": "relative viability", "setting": "HCC-366; first compound 0.3162 µM", "result": 1.29},
      {"measurement": "relative viability", "setting": "HCC-366; first compound 1 µM", "result": 0.968},
      {"measurement": "relative viability", "setting": "HARA; first compound 0.01 µM", "result": 1.19},
      {"measurement": "relative viability", "setting": "HARA; first compound 0.03162 µM", "result": 1.12},
      {"measurement": "relative viability", "setting": "HARA; first compound 0.1 µM", "result": 1.26},
      {"measurement": "relative viability", "setting": "HARA; first compound 0.3162 µM", "result": 1.04},
      {"measurement": "relative viability", "setting": "HARA; first compound 1 µM", "result": 0.882},
      {"measurement": "relative viability", "setting": "NCI-H2023; first compound 0.01 µM", "result": 0.925},
      {"measurement": "relative viability", "setting": "NCI-H2023; first compound 0.03162 µM", "result": 1.08},
      {"measurement": "relative viability", "setting": "NCI-H2023; first compound 0.1 µM", "result": 1.16},
      {"measurement": "relative viability", "setting": "NCI-H2023; first compound 0.3162 µM", "result": 1.13},
      {"measurement": "relative viability", "setting": "NCI-H2023; first compound 1 µM", "result": 0.968},
      {"measurement": "relative viability", "setting": "SK-LU-1; first compound 0.01 µM", "result": 1.1},
      {"measurement": "relative viability", "setting": "SK-LU-1; first compound 0.03162 µM", "result": 0.911},
      {"measurement": "relative viability", "setting": "SK-LU-1; first compound 0.1 µM", "result": 1.27},
      {"measurement": "relative viability", "setting": "SK-LU-1; first compound 0.3162 µM", "result": 1.75},
      {"measurement": "relative viability", "setting": "SK-LU-1; first compound 1 µM", "result": 1.06},
      {"measurement": "relative viability", "setting": "EMC-BAC-2; first compound 0.01 µM", "result": 1.11},
      {"measurement": "relative viability", "setting": "EMC-BAC-2; first compound 0.03162 µM", "result": 1.07},
      {"measurement": "relative viability", "setting": "EMC-BAC-2; first compound 0.1 µM", "result": 1.11},
      {"measurement": "relative viability", "setting": "EMC-BAC-2; first compound 0.3162 µM", "result": 1.19},
      {"measurement": "relative viability", "setting": "EMC-BAC-2; first compound 1 µM", "result": 1.04},
      {"measurement": "relative viability", "setting": "NCI-H23; first compound 0.01 µM", "result": 1.06},
      {"measurement": "relative viability", "setting": "NCI-H23; first compound 0.03162 µM", "result": 1.24},
      {"measurement": "relative viability", "setting": "NCI-H23; first compound 0.1 µM", "result": 1.09},
      {"measurement": "relative viability", "setting": "NCI-H23; first compound 0.3162 µM", "result": 1.21},
      {"measurement": "relative viability", "setting": "NCI-H23; first compound 1 µM", "result": 0.91},
      {"measurement": "relative viability", "setting": "HCC-15; first compound 0.01 µM", "result": 1.24},
      {"measurement": "relative viability", "setting": "HCC-15; first compound 0.03162 µM", "result": 1.06},
      {"measurement": "relative viability", "setting": "HCC-15; first compound 0.1 µM", "result": 1.06},
      {"measurement": "relative viability", "setting": "HCC-15; first compound 0.3162 µM", "result": 1.19},
      {"measurement": "relative viability", "setting": "HCC-15; first compound 1 µM", "result": 0.936},
      {"measurement": "relative viability", "setting": "NCI-H2126; first compound 0.01 µM", "result": 1.23},
      {"measurement": "relative viability", "setting": "NCI-H2126; first compound 0.03162 µM", "result": 1.16},
      {"measurement": "relative viability", "setting": "NCI-H2126; first compound 0.1 µM", "result": 1.22},
      {"measurement": "relative viability", "setting": "NCI-H2126; first compound 0.3162 µM", "result": 1.19},
      {"measurement": "relative viability", "setting": "NCI-H2126; first compound 1 µM", "result": 1.13}
    ]}
  ]
}
